Results on two compounds are retold here after US10034860B2, “Estrogen receptor modulator for the treatment of locally advanced or metastatic estrogen receptor positive breast cancer” (Genentech, Inc., priority 2013, dated 2018).

Data set [1] concerns xenograft models of ER+ breast cancer. The data set is described as follows: tamoxifen-sensitive and tamoxifen-resistant xenograft models of ER+ breast cancer. The data set is classed as in vivo.
The test system of another data set is breast cancer cell lines. The data set is described as follows: breast tumor cell proliferation. Format: cell-based.
Details of data set [2]: species or system postmenopausal women. The settings on record: in vivo. As for the experimental part:
If the safety and PK profile seen in the Phase I (dose escalation) portion of the study are deemed favorable to justify further continuation of the study, dose escalation will be followed by an expansion cohort to further confirm safety and tolerability and assess preliminary evidence of antitumor activity (Phase IIa).
(§1) A preliminary analysis of the first 41 patients enrolled in the Phase I study described in Example 1 was conducted. 41 patients were enrolled in the Phase I portion of the study, across 9 different dose escalation cohorts. The patients were postmenopausal women with advanced or metastatic breast cancer that had previously relapsed or progressed following prior therapy with the aromatase inhibitors anastrozole, exemestane, and letrozole (90%), chemotherapy (68%), including capecitabine (27%), tamoxifen (54%), fulvestrant (41%), everolimus (19%), and also other investigational agents (17%).

Data set [3] concerns ER and Ki-67 levels in tumor specimens. The data set is described as follows: Phase I clinical trial: tumor biopsies, ER and Ki-67 levels. Also noted: species or system postmenopausal women. Conditions: in vivo.
Source text: Pre- and post-treatment tumor biopsies (soft tissue or visceral lesions) will be collected to evaluate: • Tumor Histology; tumor vs. stroma, vs fibrotic tissue • ERα and PR protein levels by immunohistochemistry or immunofluorescence • Proliferative Index (Ki67) • ER target gene modulation: Examples of ER target genes thay maybe monitored include, but are not limited to: AGR2, AREG, C3, CCND1, CXCL12, ERBB2, GREB1, IL6, IRS1, PDZK1, PGR, SEMA3B, TFF1, TFF2, TFF3, TOP2A, WISP2. Circulating Tumor DNA (ctDNA)
as §1

A further data set in a line: oral bioavailability. Conditions: in vivo.
Data set [4] deals with advanced or metastatic ER+ (HER2−) breast cancer. Briefly: Phase I clinical trial: safety and clinical benefit. Format: in vivo.
Source text: The MTD and/or RP2D will be defined as the dose with ≤1 out of 6 patients with Dose Limiting Toxicity (DLT). Dose Limiting Toxicity (DLT) Definition: Any Grade ≥3 non-hematology toxicity (excluding alopecia); Any Grade ≥3 hematology toxicity >7 days; Any Grade toxicity that leads to study drug interruption >7 days.
Disease assessments will be performed. Imaging studies will include a CT scan of the chest, abdomen, and pelvis, plus a bone scan. Radiographic confirmation of objective tumor response or disease progression will be based on RECIST v1.1 (Eisenhauer, 2009). For new bone lesions detected on bone scans, a second imaging modality (e.g., CT or MRI) will be required to confirm progression.
as §1

Regarding `C[C@]12CC[C@@H]3c4ccc(O)cc4C[C@@H](CCCCCCCCC[S+]([O-])CCCC(F)(F)C(F)(F)F)[C@H]3[C@@H]1CC[C@@H]2O` (stereo partly drawn) [fulvestrant, reference compound], the “efficacy compared with the acrylic acid compound” value in data set [1] (tamoxifen-resistant xenograft models) was “less efficacious”.
Take `CC/C(=C(/c1ccc(/C=C/C(=O)O)cc1)c1ccc2[nH]ncc2c1)c1ccc(F)cc1Cl` [(E)-3-(4-((E)-2-(2-chloro-4-fluorophenyl)-1-(1H-indazol-5-yl)but-1-en-1-yl)phenyl)acrylic acid]: the “breast tumor cell proliferation” value with breast cancer cell lines is recorded as “inhibition of breast tumor cell proliferation”. In addition, the tolerability entry in data set [1] (all doses, xenograft models) is “very well tolerated”. In addition, the efficacious dose range in data set [1] (all xenograft models) was in the range of 10 to 100 mg/kg/day. Further, the anti-tumor activity entry in data set [1] (tamoxifen-sensitive and tamoxifen-resistant xenograft models) is “dose dependent anti-tumor activity”. For the same compound, the “dose at which target plasma concentrations were achieved” value in data set [2] (female, human) was at least 600 mg QD. Also, in data set [2] (po), the pharmacokinetic profile entry was “linear and dose proportional”. For the same compound, in data set [3], the “ER and Ki-67 levels in tumor specimens” value is “reduced”. Moreover, in the data set “oral bioavailability”, the oral bioavailability result is “good oral bioavailability”. Further, the safety and tolerability entry in data set [4] (41 patients, progressed on a median of 4 prior treatments) was “safe and well tolerated”. For the same compound, the “preliminary overall clinical benefit rate” value in data set [4] (all patients, preliminary analysis) is 42%. The “preliminary clinical benefit rate” value in data set [4] (patients previously treated with fulvestrant) was 35%.
